# The source made the active and inactive calls. The rule behind the calls is not given here.
# Legend:
# MDA-MB-231 = assay: Growth inhibition of human MDA-MB-231 cells after 48 hrs by SRB assay; format: functional; conditions: MDA-MB-231, 48 h
# ACHN = assay: Growth inhibition of human ACHN cells after 48 hrs by SRB assay; format: functional
# [1] = Growth inhibition of human RXF393 cells after 48 hrs by SRB assay; format: functional; conditions: RXF 393, 48 h
# [2] = Growth inhibition of human EKVX cells after 48 hrs by SRB assay; format: functional
# NCI-H460 = assay: Growth inhibition of human NCI-H460 cells after 48 hrs by SRB assay; format: functional; conditions: NCI-H460, 48 h
# NCI-H23 = assay: Growth inhibition of human NCI-H23 cells after 48 hrs by SRB assay; format: functional; conditions: NCI-H23, 48 h
# SF-268 = assay: Growth inhibition of human SF268 cells after 48 hrs by SRB assay; format: functional; conditions: SF-268, 48 h
# [3] = Growth inhibition of human OVCAR8 cells after 48 hrs by SRB assay; format: functional; conditions: OVCAR-8, 48 h
# MCF7 [4] = assay: Growth inhibition of human MCF7 cells after 48 hrs by SRB assay; format: functional; conditions: MCF7, 48 h
# COLO 205 = assay: Growth inhibition of human COLO205 cells after 48 hrs by SRB assay; format: functional; conditions: COLO 205, 48 h
# HOP-62 = assay: Growth inhibition of human HOP62 cells after 48 hrs by SRB assay; format: functional; conditions: HOP-62, 48 h
# HCT-116 = assay: Growth inhibition of human HCT116 cells after 48 hrs by SRB assay; format: functional; conditions: HCT-116, 48 h
# A498 = assay: Growth inhibition of human A498 cells after 48 hrs by SRB assay; format: functional; conditions: A498, 48 h
# IGROV-1 = assay: Growth inhibition of human IGROV1 cells after 48 hrs by SRB assay; format: functional; conditions: IGROV-1, 48 h
# RPMI-8226 = assay: Growth inhibition of human RPMI8226 cells after 48 hrs by SRB assay; format: functional; conditions: RPMI-8226, 48 h
# SK-OV-3 = assay: Growth inhibition of human SKOV3 cells after 48 hrs by SRB assay; format: functional; conditions: SK-OV-3, 48 h
# [5] = Growth inhibition of human HOP92 cells after 48 hrs by SRB assay; format: functional; conditions: HOP-92, 48 h
# NCI-H322M = assay: Growth inhibition of human NCI-H322M cells after 48 hrs by SRB assay; format: functional
# TK-10 = assay: Growth inhibition of human TK10 cells after 48 hrs by SRB assay; format: functional; conditions: TK-10, 48 h
# U-251 = assay: Growth inhibition of human U251 cells after 48 hrs by SRB assay; format: functional; conditions: U-251, 48 h
# [6] = Growth inhibition of human Hs578T cells after 48 hrs by SRB assay; format: functional; conditions: Hs-578T
# SK-MEL-5 = assay: Growth inhibition of human SK-MEL-5 cells after 48 hrs by SRB assay; format: functional; conditions: SK-MEL-5, 48 h
# Malme-3M = assay: Growth inhibition of human MALME-3M cells after 48 hrs by SRB assay; format: functional
# [7] = Growth inhibition of human UACC257 cells after 48 hrs by SRB assay; format: functional; conditions: UACC-257, 48 h
# [8] = Growth inhibition of human UACC62 cells after 48 hrs by SRB assay; format: functional; conditions: UACC-62, 48 h
# MCF7 [9] = assay: Cell cycle arrest in human MCF7 cells assessed as accumulation at S phase at 4 uM after 24 hrs by propidium iodide staining-based flow cytometry (reference value: 20.17%); format: functional
# HT-29 = assay: Growth inhibition of human HT-29 cells after 48 hrs by SRB assay; format: functional; conditions: HT-29, 48 h
# [10] = Growth inhibition of human UO31 cells after 48 hrs by SRB assay; format: functional; conditions: UO-31, 48 h
# SNB-19 = assay: Growth inhibition of human SNB19 cells after 48 hrs by SRB assay; format: functional; conditions: SNB-19, 48 h
# [11] = Growth inhibition of human SF295 cells after 48 hrs by SRB assay; format: functional; conditions: SF-295, 48 h
# SK-MEL-28 = assay: Growth inhibition of human SK-MEL-28 cells after 48 hrs by SRB assay; format: functional; conditions: SK-MEL-28, 48 h
# MCF7 [12] = assay: Growth inhibition of human MCF7 cells assessed as cell viability at 4 uM after 24 hrs by MTT assay; format: functional, cell-based
# [13] = Growth inhibition of human BT549 cells after 48 hrs by SRB assay; format: functional; conditions: BT-549, 48 h
# MCF7 [14] = assay: Cell cycle arrest in human MCF7 cells assessed as accumulation at G2/M phase at 4 uM after 24 hrs by propidium iodide staining-based flow cytometry (reference value: 15.79%); format: functional
# PC-3 = assay: Growth inhibition of human PC3 cells after 48 hrs by SRB assay; format: functional; conditions: PC-3, 48 h
# HL-60(TB) = assay: Growth inhibition of human HL-60(TB) cells after 48 hrs by SRB assay; format: functional; conditions: HL-60, 48 h
# KM12 = assay: Growth inhibition of human KM12 cells after 48 hrs by SRB assay; format: functional; conditions: KM12, 48 h
# SR = assay: Growth inhibition of human SR cells after 48 hrs by SRB assay; format: functional
# [15] = Growth inhibition of human HCT15 cells after 48 hrs by SRB assay; format: functional; conditions: HCT-15, 48 h
# MDA-MB-468 = assay: Growth inhibition of human MDA-MB-468 cells after 48 hrs by SRB assay; format: functional; conditions: MDA-MB-468, 48 h
# [16] = Growth inhibition of human NCI-ADR-RES cells after 48 hrs by SRB assay; format: functional
# [17] = Growth inhibition of human LOXIMVI cells after 48 hrs by SRB assay; format: functional; conditions: LOX IMVI
# SN12C = assay: Growth inhibition of human SN12C cells after 48 hrs by SRB assay; format: functional
# [18] = Growth inhibition of human OVCAR4 cells after 48 hrs by SRB assay; format: functional; conditions: OVCAR-4, 48 h
# CAKI-1 = assay: Growth inhibition of human Caki1 cells after 48 hrs by SRB assay; format: functional; conditions: CAKI-1, 48 h
# SW-620 = assay: Growth inhibition of human SW620 cells after 48 hrs by SRB assay; format: functional; conditions: SW-620, 48 h
# SNB-75 = assay: Growth inhibition of human SNB75 cells after 48 hrs by SRB assay; format: functional; conditions: SNB-75, 48 h
# T47D = assay: Growth inhibition of human T47D cells after 48 hrs by SRB assay; format: functional
# [19] = Growth inhibition of human OVCAR5 cells after 48 hrs by SRB assay; format: functional; conditions: OVCAR-5, 48 h
# 786-0 = assay: Growth inhibition of human 786-0 cells after 48 hrs by SRB assay; format: functional; conditions: 786-0, 48 h
# [20] = Growth inhibition of human HCC2998 cells after 48 hrs by SRB assay; format: functional; conditions: HCC 2998, 48 h
# M14 = assay: Growth inhibition of human M14 cells after 48 hrs by SRB assay; format: functional; conditions: M14, 48 h
# NCI-H522 = assay: Growth inhibition of human NCI-H522 cells after 48 hrs by SRB assay; format: functional; conditions: NCI-H522, 48 h
# [21] = Growth inhibition of human MOLT4 cells after 48 hrs by SRB assay; format: functional; conditions: MOLT-4, 48 h
# DU-145 = assay: Growth inhibition of human DU145 cells after 48 hrs by SRB assay; format: functional; conditions: DU-145, 48 h
# [22] = Growth inhibition of human SF539 cells after 48 hrs by SRB assay; format: functional; conditions: SF-539, 48 h
# MDA-MB-435 = assay: Growth inhibition of human MDA-MB-435 cells after 48 hrs by SRB assay; format: functional; conditions: MDA-MB-435, 48 h
# K562 = assay: Growth inhibition of human K562 cells after 48 hrs by SRB assay; format: functional; conditions: K562, 48 h
# A549 = assay: Growth inhibition of human A549 cells after 48 hrs by SRB assay; format: functional; conditions: A549, 48 h
# CCRF-CEM = assay: Growth inhibition of human CCRF-CEM cells after 48 hrs by SRB assay; format: functional
# SK-MEL-2 = assay: Growth inhibition of human SK-MEL-2 cells after 48 hrs by SRB assay; format: functional; conditions: SK-MEL-2, 48 h
# [23] = Growth inhibition of human OVCAR3 cells after 48 hrs by SRB assay; format: functional; conditions: OVCAR-3, 48 h
# NCI-H226 = assay: Growth inhibition of human NCI-H226 cells after 48 hrs by SRB assay; format: functional; conditions: NCI-H226, 48 h
# MCF7 [24] = assay: Cell cycle arrest in human MCF7 cells assessed as accumulation at G0/G1 phase at 4 uM after 24 hrs by propidium iodide staining-based flow cytometry (reference value: 64.04%); format: functional
structure (smiles),measurement,setting,value
COc1ccc(-c2nc3ncccn3c2/C=C/C(=O)c2cc(OC)c(OC)c(OC)c2)cc1,GI50,MDA-MB-231,2.73 µM
same,GI50,ACHN,1.57 µM
same,GI50,[1],1.11 µM
same,GI50,[2],1.61 µM
same,GI50,NCI-H460,1.43 µM
same,GI50,NCI-H23,1.35 µM
same,GI50,SF-268,2.36 µM
same,GI50,[3],2.72 µM
same,GI50,MCF7 [4],1.14 µM
same,GI50,COLO 205,1.7 µM
same,GI50,HOP-62,2.83 µM
same,GI50,HCT-116,1.17 µM
same,GI50,A498,2.13 µM
same,GI50,IGROV-1,2.2 µM
same,GI50,RPMI-8226,2.21 µM
same,GI50,SK-OV-3,2.5 µM
same,GI50,[5],1.43 µM
same,GI50,NCI-H322M,1.76 µM
same,GI50,TK-10,2.88 µM
same,GI50,U-251,1.29 µM
same,GI50,[6],1.91 µM
same,GI50,SK-MEL-5,1.52 µM
same,GI50,Malme-3M,1.81 µM
same,GI50,[7],1.82 µM
same,GI50,[8],1.88 µM
same,Activity,MCF7 [9],8.43%
same,GI50,HT-29,2.19 µM
same,GI50,[10],0.51 µM
same,GI50,SNB-19,3.01 µM
same,GI50,[11],2.39 µM
same,GI50,SK-MEL-28,1.65 µM
same,inhibition,MCF7 [12],Active
same,GI50,[13],1.45 µM
same,Activity,MCF7 [14],1.53%
same,GI50,PC-3,4.32 µM
same,GI50,HL-60(TB),2.52 µM
same,GI50,KM12,1.61 µM
same,GI50,SR,1.53 µM
same,GI50,[15],1.38 µM
same,GI50,MDA-MB-468,1.81 µM
same,GI50,[16],1.56 µM
same,GI50,[17],1.46 µM
same,GI50,SN12C,2.56 µM
same,GI50,[18],2.91 µM
same,GI50,CAKI-1,1.58 µM
same,GI50,SW-620,1.75 µM
same,GI50,SNB-75,1.89 µM
same,GI50,T47D,2.53 µM
same,GI50,[19],1.53 µM
same,GI50,786-0,1.84 µM
same,GI50,[20],1.58 µM
same,GI50,M14,1.53 µM
same,GI50,NCI-H522,1.66 µM
same,GI50,[21],3.1 µM
same,GI50,DU-145,2.55 µM
same,GI50,[22],1.36 µM
same,GI50,MDA-MB-435,2.28 µM
same,GI50,K562,2.63 µM
same,GI50,A549,2.71 µM
same,GI50,CCRF-CEM,4.01 µM
same,GI50,SK-MEL-2,1.87 µM
same,GI50,[23],1.75 µM
same,GI50,NCI-H226,2.28 µM
same,Activity,MCF7 [24],90.04%
